Data as given in patent US9695155B2, “Herbicidal substituted pyrimidinyloxy benzene compounds” (E. I. DU PONT DE NEMOURS AND COMPANY, priority 2013, dated 2017).

Tests used:
[1] = system: giant foxtail; experiment: Test C preemergence; format: in vivo, Setaria faberii; conditions: for Foxtail, Giant plant response rating: preemergence; for Plant response rating, Foxtail, Giant: Preemergence, scale 0 to 100, 0 no effect, 100 complete control
Excerpt: (§1) Seeds of plant species selected from blackgrass (Alopecurus myosuroides), Italian ryegrass (Lolium multiflorum), wheat, winter (winter wheat, Triticum aestivum), galium (catchweed bedstraw, Galium aparine), corn (Zea mays), large (Lg) crabgrass (Digitaria sanguinalis), giant foxtail (Setaria faberii), johnsongrass (Sorghum halepense), lambsquarters (Chenopodium album), morningglory (Ipomoea coccinea), yellow nutsedge (Cyperus esculentus), pigweed (Amaranthus retroflexus), ragweed (common ragweed, Ambrosia elatior), soybean (Glycine max), barnyardgrass (Echinochloa crus-galli), oilseed rape (Brassica napus), waterhemp (common waterhemp, Amaranthus rudis), kochia (Kochia scoparia), wild oat (Avena fatua), surinam grass (Brachiaria decumbens), foxtail, green (green foxtail, Setaria viridis), goosegrass (Eleusine indica), bromegrass, downy (downy bromegrass, Bromus tectorum), nightshade (eastern black nightshade, Solanum ptycanthum), cocklebur (common cocklebur, Xanthium strumarium), cupgrass, woolly (woolly cupgrass, Eriochloa villosa), bermudagrass (Cynodon dactylon), sunflower, (common oilseed sunflower, Helianthus annuus), Russian thistle (Salsola kali), and velvetleaf (Abutilon theophrasti) were planted into a blend of loam soil and sand and treated preemergence with test chemicals formulated in a non-phytotoxic solvent mixture which included a surfactant.
(§2) At the same time, plants selected from these crop and weed species and also barley, winter (winter barley, Hordeum vulgare), windgrass (Apera spica-venti), chickweed (common chickweed, Stellaria media), deadnettle (henbit deadnettle, Lamium amplexicaule), and canarygrass (littleseed canarygrass, Phalaris minor) were planted in pots containing Redi-Earth® planting medium (Scotts Company, 14111 Scottslawn Road, Marysville, Ohio 43041) comprising spaghnum peat moss, vermiculite, wetting agent and starter nutrients and treated with postemergence applications of test chemicals formulated in the same manner. Plants ranged in height from 2 to 18 cm (1- to 4-leaf stage) for postemergence treatments. Treated plants and controls were maintained in a greenhouse for 13 to 15 days, after which time all species were compared to controls and visually evaluated. Plant response ratings, summarized in Table C, are based on a scale of 0 to 100 where 0 is no effect and 100 is complete control. A dash (-) response means no test result.

[2] = system: giant foxtail; experiment: Test A postemergence; format: in vivo, Setaria faberii
How it was run: (§3)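 Injury scores run from 0, no effect, to 100, complete control, judged by eye against untreated plants roughly 10 days after treatment. Chemicals carried a surfactant in a non-phytotoxic solvent and went onto loam–sand soil preemergence or onto one- to two-leaf seedlings postemergence.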

[3] = system: pigweed; experiment: Test A preemergence; format: in vivo, Amaranthus retroflexus
How it was run: as §3

[4] = system: blackgrass; experiment: Test C preemergence; format: in vivo, Alopecurus myosuroides; conditions: for Blackgrass plant response rating: preemergence; for Plant response rating, Blackgrass: Preemergence, scale 0 to 100, 0 no effect, 100 complete control
Excerpt: as §1, §2

[5] = system: ragweed; experiment: Test C preemergence; format: in vivo, Ambrosia elatior; conditions: for Ragweed plant response rating: preemergence; for Plant response rating, Ragweed: Preemergence, scale 0 to 100, 0 no effect, 100 complete control
Excerpt: as §1, §2

[6] = system: johnsongrass; experiment: Test C preemergence; format: in vivo, Sorghum halepense; conditions: for Johnsongrass plant response rating: preemergence; for Plant response rating, Johnsongrass: Preemergence, scale 0 to 100, 0 no effect, 100 complete control
Excerpt: as §1, §2

[7] = system: pigweed; experiment: Test A postemergence; format: in vivo, Amaranthus retroflexus
How it was run: as §3

[8] = system: large (Lg) crabgrass; experiment: Test A preemergence; format: in vivo, Digitaria sanguinalis
How it was run: as §3

[9] = system: large (Lg) crabgrass; experiment: Test A postemergence; format: in vivo, Digitaria sanguinalis
How it was run: as §3

[10] = 16 g ai/ha, scale 0 to 100 (0 no effect, 100 complete control)
[11] = 62 g ai/ha, scale 0 (no effect) to 100 (complete control)
[12] = 125 g ai/ha, scale 0 (no effect) to 100 (complete control)
[13] = 125 g ai/ha, 0 to 100 scale where 0 is no effect and 100 is complete control
[14] = 500 g ai/ha, 0 to 100 scale where 0 is no effect and 100 is complete control
[15] = 500 g ai/ha, 0 to 100 scale, 0 no effect, 100 complete control
[16] = 500 g ai/ha, 0 to 100 scale, 0 no effect, 100 complete control, approx. 10 days
[17] = 31 g ai/ha, 0 to 100 scale, 0 no effect, 100 complete control
[18] = 125 g ai/ha, 0 to 100 scale, 0 no effect, 100 complete control
[19] = 31 g ai/ha, 0 to 100 scale where 0 is no effect and 100 is complete control, visual, approximately 10 days

Structure (SMILES) | Foxtail, Giant plant response rating [1, 10] | Foxtail, Giant plant response rating [1, 11] | Foxtail, Giant plant response rating [1, 12] | Plant response rating, Foxtail, Giant ([1]; 31 g ai/ha) | Plant response rating, Pigweed [3, 13] | Blackgrass plant response rating [4, 10] | Blackgrass plant response rating [4, 11] | Blackgrass plant response rating [4, 12] | Plant response rating, Blackgrass ([4]; 31 g ai/ha) | Ragweed plant response rating [5, 10] | Ragweed plant response rating [5, 11] | Ragweed plant response rating [5, 12] | Johnsongrass plant response rating [6, 10] | Johnsongrass plant response rating [6, 11] | Johnsongrass plant response rating [6, 12] | Plant response rating, Foxtail, Giant [2, 13] | Plant response rating, Foxtail, Giant [2, 17] | Plant response rating, Pigweed [7, 17] | Plant response rating, Foxtail, Giant ([1]; 62 g ai/ha) | Plant response rating, Foxtail, Giant [2, 18] | also measured
COc1cnn(-c2c(C#N)cccc2Oc2ncc(Cl)cn2)c1 [Compound 137] | 35 | 60 | 90 | 5 | 90 | 0 | 5 | 10 | 0 | 45 | 80 | 95 | 0 | 5 | 45 |  |  |  |  |  | Foxtail, Giant plant response rating [2, 13]: 70; Plant response rating, Foxtail, Giant [2, 14]: 100; Pigweed plant response rating [3, 14]: 100; Pigweed plant response rating [7, 13]: 70; Plant response rating, Pigweed [7, 14]: 100
Clc1cnc(Oc2ccccc2-n2cc(Cl)cn2)nc1 [Compound 3] |  |  |  |  |  |  |  |  |  |  |  |  |  |  |  | 30 |  |  |  |  | Plant response rating, Foxtail, Giant [2, 15]: 90; Crabgrass, Large plant response rating [8, 13]: 90; Crabgrass, Large plant response rating [8, 16]: 100; Pigweed plant response rating [3, 13]: 90; Pigweed plant response rating [3, 16]: 100; Plant response rating, Crabgrass, Large [9, 13]: 10; Plant response rating, Crabgrass, Large [9, 15]: 80; Plant response rating, Pigweed [7, 13]: 90; Plant response rating, Pigweed [7, 15]: 100
FC(F)(F)c1ccn(-c2ccccc2Oc2ncc(Cl)cn2)n1 [Compound 2, 5-chloro-2-[2-[3-(trifluoromethyl)-1H-pyrazol-1-yl]phenoxy]pyrimidine] |  |  |  |  |  |  |  |  |  |  |  |  |  |  |  |  |  |  |  |  | pest or weed control at 125 g/ha ([2]; Setaria faberi, post-emergence, 240 h, 125 g ai/ha, 0 to 100 scale where 0 is no effect and 100 is complete control, read-out: Plant response rating, Foxtail, Giant): 10%; pest or weed control at 500 g/ha ([2]; Setaria faberi, post-emergence, 240 h, 500 g ai/ha, 0 to 100 scale, 0 no effect, 100 complete control, read-out: Plant response rating Foxtail, Giant): 80%; pest or weed control at 125 g/ha ([8]; Digitaria sanguinalis, pre-emergence, 240 h, 125 g ai/ha, 0 to 100 scale where 0 is no effect and 100 is complete control, read-out: Crabgrass, Large plant response rating): 80%; pest or weed control at 500 g/ha ([8]; Digitaria sanguinalis, pre-emergence, 240 h, 500 g ai/ha, 0 to 100 scale, 0 no effect, 100 complete control, approx. 10 days, read-out: Crabgrass, Large plant response rating): 100%; pest or weed control at 125 g/ha ([3]; Amaranthus retroflexus, pre-emergence, 240 h, 125 g ai/ha, 0 to 100 scale where 0 is no effect and 100 is complete control, read-out: Pigweed plant response rating): 90%; pest or weed control at 500 g/ha ([3]; Amaranthus retroflexus, pre-emergence, 240 h, 500 g ai/ha, 0 to 100 scale, 0 no effect, 100 complete control, approx. 10 days, read-out: Pigweed plant response rating): 100%; pest or weed control at 125 g/ha ([9]; Digitaria sanguinalis, post-emergence, 240 h, 125 g ai/ha, 0 to 100 scale where 0 is no effect and 100 is complete control, read-out: Plant response rating, Crabgrass, Large): 20%; pest or weed control at 500 g/ha ([9]; Digitaria sanguinalis, post-emergence, 240 h, 500 g ai/ha, 0 to 100 scale, 0 no effect, 100 complete control, read-out: Plant response rating Crabgrass, Large): 60%; pest or weed control at 125 g/ha ([7]; Amaranthus retroflexus, post-emergence, 125 g ai/ha, 0 to 100 scale where 0 is no effect and 100 is complete control, read-out: Plant response rating, Pigweed): 60%; pest or weed control at 500 g/ha ([7]; Amaranthus retroflexus, post-emergence, 240 h, 500 g ai/ha, 0 to 100 scale, 0 no effect, 100 complete control, read-out: Plant response rating Pigweed): 100%
FCc1cccc(Oc2ncc(F)cn2)c1-n1cc(C(F)(F)F)cn1 [Compound 118] | 25 | 95 | 100 | 75 | 100 | 35 | 90 | 95 | 80 | 70 | 100 | 100 | 0 | 85 | 100 | 80 | 30 | 70 |  |  | Pigweed plant response rating (0 to 100 scale) ([3]; 31 g ai/ha): 100; Plant response rating, Ragweed ([5]; 31 g ai/ha): 100; Plant response rating, Johnsongrass ([6]; 31 g ai/ha): 25
FCc1cccc(Oc2ncc(Cl)cn2)c1-n1cc(Cl)cn1 [Compound 250] | 5 |  | 100 |  |  | 0 |  | 90 |  | 15 |  | 75 | 0 |  | 70 |  | 10 | 60 | 100 | 80 | Plant response rating, Pigweed [3, 19]: 80; Pigweed plant response rating (0 to 100 scale) ([3]; 125 g ai/ha): 100; Plant response rating, Blackgrass ([4]; 62 g ai/ha): 70; Plant response rating, Ragweed ([5]; 62 g ai/ha): 40; Plant response rating, Johnsongrass ([6]; 62 g ai/ha): 35; Plant response rating, Pigweed [7, 18]: 90
Fc1cccc(Oc2ncc(Cl)cn2)c1-n1cc(OCC(F)(F)F)cn1 [Compound 270] | 5 |  | 100 |  |  | 0 |  | 95 |  | 0 |  | 70 | 0 |  | 95 |  | 10 | 60 | 100 | 90 | Plant response rating, Pigweed [3, 19]: 100; Pigweed plant response rating (0 to 100 scale) ([3]; 125 g ai/ha): 100; Plant response rating, Blackgrass ([4]; 62 g ai/ha): 70; Plant response rating, Ragweed ([5]; 62 g ai/ha): 45; Plant response rating, Johnsongrass ([6]; 62 g ai/ha): 40; Plant response rating, Pigweed [7, 18]: 100
